The values below come from PubChem BioAssay (NCI).

Among the test systems are RXF-631 renal; DMS 114 small cell lung; DMS 273 small cell lung; BT-549 breast; PC-3 prostate; MDA-N; MDA-MB-435; T-47D breast; MDA-MB-231 breast.
Common to all, as to test: NCI tumour cell line growth inhibition, 48 h

The structures appear in SMILES notation.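 Results reflect a 48-hour exposure of cells in 96-well plates to compound at five concentrations. At the GI50, growth is halved. Definition used: TGI = concentration required for complete inhibition of growth.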 Bounds are passed on as bounds.

For `COc1ccc2c(c1)CC1c3c(cc4c(c3-2)OCO4)CCN1C` (stereo unspecified), the TGI with RXF-631 renal is 73.6 µM; in the assay on DMS 114 small cell lung, 68.8 µM; in the assay on DMS 273 small cell lung, > 100 µM.

For `COc1cc(/C=C2/C(=O)NC(Cc3cc(OC)c(OC)c(C)c3OC)C(=O)N2Cc2ccccc2)c(OC)c(C)c1OC` (stereo unspecified), the TGI with RXF-631 renal, in the assay on DMS 114 small cell lung and in the assay with DMS 273 small cell lung was > 100 µM throughout.

On to `C/C(=C\CC[C@]1(C)OC(C)(C)OC1CC/C(C)=C/CO[Si](c1ccccc1)(c1ccccc1)C(C)(C)C)CC/C=C/CO[Si](C)(C)C(C)(C)C` (stereo partly specified), for which the TGI with DMS 114 small cell lung and in the assay on DMS 273 small cell lung was > 100 µM in each case.

As for `CC(C)CCc1c(Cl)nc(Cl)nc1Cl`, the TGI in the assay on BT-549 breast was 12.3 µM; with PC-3 prostate it was > 100 µM; in the assay with MDA-N it was 21.4 µM; with MDA-MB-435, 32.2 µM.

Turning to `Cc1ccc(C2=C(c3ccccc3)C(Br)(c3ccccc3)C(c3ccccc3)=C2c2ccc(C)cc2)cc1`, the TGI in the assay with DMS 114 small cell lung is > 100 µM.

Regarding `O=C1CCCC1NC(=O)C(F)(F)F` (stereo unspecified), the TGI with DMS 273 small cell lung was > 100 µM.

With `COc1ccccc1/C=N/N=C(\N)NO`, the TGI in the assay with DMS 114 small cell lung is > 100 µM.

With `Cc1cccc2c1C/C(=C1\CCc3c(C)cccc31)C2=O`, the TGI in the assay on RXF-631 renal, in the assay with DMS 114 small cell lung and with DMS 273 small cell lung was > 100 µM in each case.

With `Cn1c(=O)c(C(=O)NC(=O)OCc2ccccc2)cn(CCSCCOC(=O)NCCCCCCNC(=O)OCCSCCn2cc(C(=O)NC(=O)OCc3ccccc3)c(=O)n(C)c2=O)c1=O`, the TGI in the assay on RXF-631 renal, in the assay with DMS 114 small cell lung and in the assay with DMS 273 small cell lung was > 100 µM each time.

Turning to `O=C(N/C(=C\c1ccc(Oc2ccc(Cl)c(Cl)c2)cc1)c1nc2ccccc2[nH]1)c1ccccc1`, the TGI in the assay with DMS 273 small cell lung came to 53.9 µM.

Regarding `O=C1C(=O)c2ccccc2C(O)=C1CCCCCCCCC1CCCCC1`, the TGI stood at 27.5 µM with BT-549 breast; 19.5 µM in the assay with PC-3 prostate; 17.9 µM in the assay with MDA-N; 21.5 µM with T-47D breast; 17.3 µM with MDA-MB-231 breast; 17.2 µM in the assay on MDA-MB-435.

`CC1=Nn2c(nnc2-c2ccc(N)cc2)NC(C)(C)C1`: the TGI in the assay with RXF-631 renal, in the assay on DMS 114 small cell lung and in the assay on DMS 273 small cell lung was > 100 µM each time.

`CC(=O)c1c[nH]cc1CO`: the TGI in the assay with PC-3 prostate, in the assay on MDA-N and in the assay on T-47D breast was > 10 µM in each case.

For the compound `CC1(C)C2C/C(=C\c3ccccc3)C(=O)C1C2` (stereo unspecified), the TGI with RXF-631 renal, in the assay on DMS 114 small cell lung and in the assay on DMS 273 small cell lung was > 100 µM each time.

As to `CC12CC3CC(C1)CC(N=[N+]=[N-])(C3)C2`, the TGI in the assay with RXF-631 renal, in the assay on DMS 114 small cell lung and in the assay with DMS 273 small cell lung was > 100 µM in each case.

Turning to `Cc1ccc(/C=C2\CCCC\C2=N\O)cc1`, in the assay with DMS 273 small cell lung, the TGI is > 100 µM.

As to `[C-]#[N+]C(C)(C)C[C@H]1CC(C)C2CCC(C)C3([N+]#[C-])CCC(=C)C1[C@H]23` (stereo partly specified), the TGI in the assay with RXF-631 renal worked out at 6.58 µM; in the assay with DMS 273 small cell lung it was 2.55 µM.

Turning to `Clc1ccc(SCCCCCCCCCCSc2ccc(Cl)cc2)cc1`, the TGI in the assay on DMS 114 small cell lung and in the assay on DMS 273 small cell lung was > 100 µM in each case.

For the compound `C=C(C)[C@H](O)C(O)CC(C)[C@@H]1CCC23CC12CCC1[C@@]2(C)CCC(OC(C)=O)C(C)(C)C2CC(OC2OC(COC(C)=O)C(O)C(O)C2O)[C@]13C` (stereo partly specified), the values for the TGI in the assay with RXF-631 renal, in the assay with DMS 114 small cell lung and in the assay on DMS 273 small cell lung were 12 µM, 10.7 µM and 11.4 µM, respectively.

Regarding `CS/C(c1ccccc1)=[N+](/C)[O-]`, the TGI in the assay on RXF-631 renal is > 100 µM.

For the compound `Clc1nc(Cl)c(Cc2ccccc2)c(Cl)n1`, the TGI in the assay with BT-549 breast came out at 8.52 µM; in the assay with PC-3 prostate it was 44.5 µM; with MDA-N, 12.5 µM; in the assay with T-47D breast, 42.4 µM; with MDA-MB-231 breast, 14.9 µM; in the assay with MDA-MB-435, 19 µM.

On to `C[CH2][Sn]([CH2]C)([O]C(=O)c1cccc(F)c1)[O][Sn]([CH2]C)([CH2]C)[O]C(=O)c1cccc(F)c1`, for which, in the assay on DMS 114 small cell lung, the GI50 was 14 µM and the TGI was determined as 27.3 µM. Also, in the assay with DMS 273 small cell lung, the GI50 is 32 µM and the TGI is > 100 µM.

In the case of `C[CH2][Sn]([Cl])([Cl])[CH2]C`, the GI50 is 16.2 µM in the assay on DMS 114 small cell lung and > 91.2 µM with DMS 273 small cell lung. Further, the TGI in the assay on DMS 114 small cell lung is 31.4 µM; in the assay with DMS 273 small cell lung, > 100 µM.

With `COc1cc(-c2oc3c(OC)c(O)c(OC)c(O)c3c(=O)c2OC)ccc1O`, the TGI in the assay on BT-549 breast is > 100 µM; with PC-3 prostate, > 100 µM; in the assay with MDA-N, > 100 µM; in the assay on T-47D breast, 67.1 µM; with MDA-MB-231 breast it was > 100 µM; in the assay on MDA-MB-435, 49.1 µM.

For the compound `COc1ccc2c(c1)OC(N)=C(C#N)C2c1ccc(F)cc1` (stereo unspecified), the GI50 is 1.63 µM with BT-549 breast; 3.09 µM with PC-3 prostate; 3.78 µM in the assay on T-47D breast; 3.09 µM with MDA-MB-231 breast; 0.22 µM in the assay with MDA-MB-435. Also, the TGI in the assay with BT-549 breast is 31.2 µM; in the assay with PC-3 prostate, 99 µM; in the assay on T-47D breast it was > 100 µM; in the assay with MDA-MB-231 breast, 97.5 µM; in the assay on MDA-MB-435 it was 0.601 µM.

Turning to `CCOc1ccccc1NC(=O)C1=C(C)NC(C)=C(C(=O)Nc2ccccc2OCC)C1c1ccc(NC(C)=O)cc1`, in the assay on DMS 114 small cell lung, the TGI was > 100 µM.

For `Oc1c(N=Nc2ccccc2)c2ccccc2c2ccc3ccccc3c12`, the TGI with BT-549 breast, in the assay with PC-3 prostate, with T-47D breast, with MDA-MB-231 breast and in the assay on MDA-MB-435 was > 100 µM in each case.

As for `O=P1(O)c2ccccc2Nc2cc(C(F)(F)F)ccc21`, the TGI with BT-549 breast, in the assay with PC-3 prostate, in the assay with MDA-N, with T-47D breast, with DMS 114 small cell lung and with MDA-MB-231 breast was > 100 µM each time. The TGI in the assay with MDA-MB-435 and in the assay on DMS 273 small cell lung was > 100 µM throughout.

Regarding `O=Cc1ccc(O)c2ncccc12`, the GI50 is 3.59 µM in the assay on BT-549 breast; 4.01 µM in the assay with PC-3 prostate; 2.56 µM in the assay with T-47D breast; 4.21 µM in the assay on MDA-MB-231 breast; 3.83 µM with MDA-MB-435. Also, the TGI with BT-549 breast was > 71.8 µM; with PC-3 prostate, > 46.6 µM; in the assay with T-47D breast, > 76 µM; in the assay on MDA-MB-231 breast, > 100 µM; in the assay with MDA-MB-435, 27.8 µM.

For `COc1cc([C@@H]2OC(=O)C3C2C(=O)O[C@H]3c2cc(OC)c(OC)c(OC)c2)cc(OC)c1OC` (stereo partly specified), the TGI with RXF-631 renal, in the assay with DMS 114 small cell lung and in the assay with DMS 273 small cell lung was > 100 µM each time.
